From patent US20080248511A1, “METHODS TO QUENCH LIGHT FROM OPTICAL REACTIONS” (priority 2007, published 2008) come the findings set out here.

The test addresses T1, Renilla luciferase (Renilla reniformis, UniProt P27652).
T1 sequence (P27652 1-311): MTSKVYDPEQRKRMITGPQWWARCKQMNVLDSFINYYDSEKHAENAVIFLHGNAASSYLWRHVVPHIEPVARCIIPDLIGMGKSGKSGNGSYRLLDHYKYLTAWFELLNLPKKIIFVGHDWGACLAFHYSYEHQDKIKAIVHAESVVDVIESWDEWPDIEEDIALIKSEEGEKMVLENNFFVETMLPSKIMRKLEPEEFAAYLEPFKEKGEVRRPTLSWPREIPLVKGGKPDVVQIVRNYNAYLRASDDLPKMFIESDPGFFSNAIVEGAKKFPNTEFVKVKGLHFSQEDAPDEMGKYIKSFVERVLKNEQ
Briefly: Quench of Renilla luciferase luminescence by competitive inhibitors in detergent-containing quenching reagent (Example 1). In kind it is biochemical. The method, then:
Renilla luciferase (1×10^−9 M in Renilla Luciferase Lysis Buffer (Promega))+0.1% Prionex (PentaPharma) was added to Renilla Luciferase Assay Buffer (Promega) containing 3 μM coelenterazine-h. The initial Renilla luciferase-mediated luminescence was measured for 10 seconds using a Turner 20/20 n (Turner BioSystems). A quenching reagent containing 50 mM HEPES pH 7.4, 16 mM MgSO4, 1 mM CDTA, 0.5% Tergitol NP-9, 0.015% dodecyltrimethylammonium bromide, 10 mM thiourea, 0.05% Mazu-DF-204 (PGP), and 1.5 mM ATP (Pharmacia) was added to the reactions to reduce the Renilla luciferase-mediated luciferase luminescence. […] After the addition of the inhibitors, a second Renilla luciferase-mediated luminescence reading was taken. Unless otherwise specified, materials were obtained from Sigma-Aldrich.
The quenching agents described herein are effective in the presence of detergents used for cell lysis as well as other quenching agents.

As for methylether coelenterazine-hh, the “Reduction in Renilla luciferase luminescence after 2nd measurement” value by setting is: (Quench Reagent + 10 μM inhibitor) 21-fold; (Quench Reagent + 100 μM inhibitor) 34-fold.
